US20080267942A1, “BENZAZEPIN-2(1H)-ONE DERIVATIVES” (Pfizer Limited, priority 2006, published 2008)
pEC50: −log10 of the molar value.

Experiments:
[1] = molecular target: T1, porcine beta-2 adrenoceptor (Sus scrofa, UniProt Q28997); assay: cAMP assay in CHO cells transfected with the porcine beta-2 adrenoceptor (DiscoveRx Hit Hunter cAMP II); type: cell-based; conditions: CHO cells transfected with porcine beta-2 adrenoceptor, 30 minutes incubation with compound
T1 construct: expressed in transfected cells; host or cells: CHO cells
Description: (§1) CHO cells transfected with the bovine or porcine beta-2 adrenceptors were maintained in culture in DMEM/HAMS F12+10% FBS+2 mM glutamine+500 μg/ml geneticin (for the porcine receptor the medium was supplement with 1.5 mM HEPES) at 37° C. with a 5% CO2 atmosphere.
(§2) Cells were plated into 96 well viewplates in medium and incubated overnight at 37° C. with a 5% CO2 atmosphere. The cells were pre-incubated with 0.5 mM IBMX in PBS for 30 minutes prior to incubation with increasing concentrations of experimental compound (5×10^−12 to 10^−5M) for 30 minutes at 37° C. with a 5% CO2 atmosphere. At the end of the incubation time the compound was removed and the cells assayed for cAMP using the DiscoveRx Hit Hunter cAMP II™ assay kit.
(§3) Duplicate samples were run for each experimental compound and the data generated was analysed using EC50 analysis software in Graphpad Prism.

[2] = molecular target: T2, bovine beta-2 adrenoceptor (Bos taurus, UniProt Q28044); assay: cAMP assay in CHO cells transfected with the bovine beta-2 adrenoceptor (DiscoveRx Hit Hunter cAMP II); type: cell-based; conditions: CHO cells transfected with bovine beta-2 adrenoceptor, 30 minutes incubation with compound
T2 construct: expressed in transfected cells; host or cells: CHO cells
Description: as §1, §2, §3

T2 sequence (Q28044 whole entry): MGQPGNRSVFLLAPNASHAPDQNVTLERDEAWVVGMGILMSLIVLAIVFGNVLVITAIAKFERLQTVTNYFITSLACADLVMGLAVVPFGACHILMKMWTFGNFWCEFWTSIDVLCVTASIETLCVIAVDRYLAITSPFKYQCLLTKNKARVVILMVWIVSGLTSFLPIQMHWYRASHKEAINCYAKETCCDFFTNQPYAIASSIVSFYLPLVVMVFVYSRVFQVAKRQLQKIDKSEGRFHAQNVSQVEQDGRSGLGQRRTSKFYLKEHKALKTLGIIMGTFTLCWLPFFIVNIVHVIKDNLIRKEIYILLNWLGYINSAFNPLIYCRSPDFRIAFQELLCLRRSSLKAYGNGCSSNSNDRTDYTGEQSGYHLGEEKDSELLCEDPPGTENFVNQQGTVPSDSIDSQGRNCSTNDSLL
T1 sequence (Q28997 whole entry): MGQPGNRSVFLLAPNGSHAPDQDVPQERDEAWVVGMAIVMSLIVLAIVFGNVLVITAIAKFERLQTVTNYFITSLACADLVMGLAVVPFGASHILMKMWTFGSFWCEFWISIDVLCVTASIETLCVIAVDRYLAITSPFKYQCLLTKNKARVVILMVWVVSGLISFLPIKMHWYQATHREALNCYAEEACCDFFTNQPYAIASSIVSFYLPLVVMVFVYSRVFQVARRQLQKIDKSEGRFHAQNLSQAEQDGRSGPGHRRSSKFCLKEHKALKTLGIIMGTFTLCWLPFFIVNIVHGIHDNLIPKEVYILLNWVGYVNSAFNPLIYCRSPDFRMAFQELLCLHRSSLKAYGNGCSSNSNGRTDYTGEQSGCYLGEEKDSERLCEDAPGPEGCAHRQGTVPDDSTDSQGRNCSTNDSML

Row | Structure (SMILES) | pEC50 [1] | pEC50 [2]
1 | CC(CCc1cc(F)cc2cc[nH]c12)N[C@@H]1CCn2c(=O)[nH]c3cccc(c32)[C@H]1O (mixture of isomers) [Example 1a, 6-{[3-(5-Fluoro-1H-indol-7-yl)-1-methylpropyl]amino}-7-hydroxy-4,5,6,7-tetrahydroimidazo[4,5,1-jk][1]benzazepin-2(1H)-one] | 8.85 | 9.30
2 | CC(CCc1cc(F)cc2cc[nH]c12)N[C@@H]1CCn2c(=O)[nH]c3cccc(c32)[C@H]1O (mixture of isomers) [Example 1b, 6-{[3-(5-Fluoro-1H-indol-7-yl)-1-methylpropyl]amino}-7-hydroxy-4,5,6,7-tetrahydroimidazo[4,5,1-jk][1]benzazepin-2(1H)-one] | 9.00 | 9.15
3 | CC(CCc1ccc(C(=O)O)o1)N[C@@H]1CCn2c(=O)[nH]c3cccc(c32)[C@H]1O (mixture of isomers) [Example 2, 5-(3-{[7-Hydroxy-2-oxo-1,2,4,5,6,7-hexahydroimidazo[4,5,1-jk][1]benzazepin-6-yl]amino}butyl)-2-furoic acid] | 7.51 | 6.77
4 | Cc1[nH]c2ccccc2c1CCC(C)N[C@@H]1CCn2c(=O)[nH]c3cccc(c32)[C@H]1O (mixture of isomers) [Example 3b, 7-Hydroxy-6-{[1-methyl-3-(2-methyl-1H-indol-3-yl)propyl]amino}-4,5,6,7-tetrahydroimidazo[4,5,1-jk][1]benzazepin-2(1H)-one] | 8.52 | 8.26
5 | CC(CCc1cccc(=O)[nH]1)N[C@@H]1CCn2c(=O)[nH]c3cccc(c32)[C@H]1O (mixture of isomers) [Example 7c, 7-Hydroxy-6-{[1-methyl-3-(6-oxo-1,6-dihydropyridin-2-yl)propyl]amino}-4,5,6,7-tetrahydroimidazo[4,5,1-jk][1]benzazepin-2(1H)-one] |  | 8.42
6 | CC(CCn1cnc2cc(F)cc(F)c21)N[C@@H]1CCn2c(=O)[nH]c3cccc(c32)[C@H]1O (single isomer, unassigned) [Example 69] | 9.40 | 
7 | CC(Cc1c[nH]c2ccccc12)N[C@@H]1CCn2c(=O)[nH]c3cccc(c32)[C@H]1O (stereo partly drawn) [Example 68, (6R,7R)-7-hydroxy-6-{[2-(1H-indol-3-yl)-1-methylethyl]amino}-4,5,6,7-tetrahydroimidazo[4,5,1-jk][1]benzazepin-2(1H)-one] | 8.31 | 

Further lines, results first:

Row | pEC50 [1] | pEC50 [2] | Structure (SMILES)
8 | 8.48 |  | Cc1nnsc1CCC(C)N[C@@H]1CCn2c(=O)[nH]c3cccc(c32)[C@H]1O (single isomer, unassigned) [Example 70]
9 | 7.82 |  | CC(CCn1cnnc1)N[C@@H]1CCn2c(=O)[nH]c3cccc(c32)[C@H]1O (single isomer, unassigned) [Example 71]
10 | 8.57 |  | CC(CCc1cncnc1)N[C@@H]1CCn2c(=O)[nH]c3cccc(c32)[C@H]1O (single isomer, unassigned) [Example 72]
11 | 9.10 |  | COc1cncc(CCC(C)N[C@@H]2CCn3c(=O)[nH]c4cccc(c43)[C@H]2O)c1 (single isomer, unassigned) [Example 73]
12 | 8.33 |  | CC(CCc1cnc(O)s1)N[C@@H]1CCn2c(=O)[nH]c3cccc(c32)[C@H]1O (single isomer, unassigned) [Example 74]
13 | 8.33 |  | CC(CCn1nnc2ccccc21)N[C@@H]1CCn2c(=O)[nH]c3cccc(c32)[C@H]1O (single isomer, unassigned) [Example 75]
14 | 8.70 |  | CC(CCn1cnc2cnccc21)N[C@@H]1CCn2c(=O)[nH]c3cccc(c32)[C@H]1O (single isomer, unassigned) [Example 76]
15 | 8.55 |  | CC(CCn1cnc2ncccc21)N[C@@H]1CCn2c(=O)[nH]c3cccc(c32)[C@H]1O (single isomer, unassigned) [Example 77]
16 | 8.92 |  | Cc1nc2ccccc2n1CCC(C)N[C@@H]1CCn2c(=O)[nH]c3cccc(c32)[C@H]1O (single isomer, unassigned) [Example 78]
17 | 9.00 |  | CC(CCn1cnc2cc(F)c(F)cc21)N[C@@H]1CCn2c(=O)[nH]c3cccc(c32)[C@H]1O (single isomer, unassigned) [Example 79]
